Measured values from patent US20160346255A1, “METHODS, AGENTS AND COMPOSITIONS FOR TREATMENT OF INFLAMMATORY CONDITIONS” (Betanien Hospital, priority 2014, published 2016).
Non-standard residues stand in square brackets, D forms with d. Residues, ends and D or L forms follow the SMILES beside them. *: point of attachment. dPhe(4-NHCONH2) = NC(=O)Nc1ccc(C[C@@H](N)C(=O)O)cc1; Dihydroorotyl(S) = O=C1C[C@@H](C(=O)*)NC(=O)N1; dPhe(4-Cl) = N[C@H](Cc1ccc(Cl)cc1)C(=O)O; Phe(4-NH2) = Nc1ccc(C[C@H](N)C(=O)O)cc1; d2Nal = N[C@H](Cc1ccc2ccccc2c1)C(=O)O; Lys(iPr) = CC(C)NCCCC[C@H](N)C(=O)O; d3Pal = N[C@H](Cc1cccnc1)C(=O)O

Test system: Patients with Rheumatoid Arthritis
Assay: Rheumatoid arthritis patients treated with degarelix: clinical variables
Assay type: in vivo, human
Source text: Examples of Treating Patients with Rheumatoid Arthritis with a GnRH Antagonist [table] […] Examples of Patients with Continued RA Improvement Over Several Weeks Despite Stably Low Levels of LH

[1] = Patient 2, 15 weeks, baseline 17
[2] = Patient 2, 15 weeks, baseline 90

## CC(=O)N[C@H](Cc1ccc2ccccc2c1)C(=O)N[C@H](Cc1ccc(Cl)cc1)C(=O)N[C@H](Cc1cccnc1)C(=O)N[C@@H](CO)C(=O)N[C@@H](Cc1ccc(NC(=O)[C@@H]2CC(=O)NC(=O)N2)cc1)C(=O)N[C@H](Cc1ccc(NC(N)=O)cc1)C(=O)N[C@@H](CC(C)C)C(=O)N[C@@H](CCCCNC(C)C)C(=O)N1CCC[C@H]1C(=O)N[C@H](C)C(N)=O [degarelix] (Ac-[d2Nal][dPhe(4-Cl)][d3Pal]S[Phe(4-NH2)](Dihydroorotyl(S))[dPhe(4-NHCONH2)]L[Lys(iPr)]P[dA]-NH2)
Patient 1, 28 weeks, baseline 1.25
  Function score (Good <1), final: 1.25, 0
Patient 1, 28 weeks, baseline 2.5
  Morning stiffness, final: 2.5, 0 hrs
Patient 1, 28 weeks, baseline 6
  Swollen joint count assessed with ultrasound, final: 6, 0
Patient 1, 28 weeks, baseline 9
  Tender joint, final: 9, 0
Patient 1, 28 weeks, baseline 81
  Patient own assessment (0-100), final: 81, 0
Patient 1, 28 weeks, baseline 85
  Physician assessment (0-100), final: 85, 7
Patient 1, treatment duration 28 weeks
  ACR % Response: 90%
Patient 2, 15 weeks, baseline 2.0
  Function score (Good <1), final: 2.0, 0.25
Patient 2, 15 weeks, baseline 9
  Morning stiffness, final: 9, 1 hrs
[1]
  Swollen joint count assessed with ultrasound, final: 17, 2
  Tender joint, final: 17, 3
[2]
  Patient own assessment (0-100), final: 90, 35
  Physician assessment (0-100), final: 90, 40
Patient 2, treatment duration 15 weeks
  ACR % Response: 60%
Patient 3, 4 wks
  ACR % Response: 30%
Patient 3, 8 wks
  ACR % Response: 40%
Patient 3, 12 weeks, baseline 1.75
  Function score (Good <1), final: 1.75, 0.63
Patient 3, 12 weeks, baseline 7
  Morning stiffness, final: 7, ½
Patient 3, 12 weeks, baseline 23
  Swollen joint count assessed with ultrasound, final: 23, 4
Patient 3, 12 weeks, baseline 26
  Tender joint, final: 26, 11
Patient 3, 12 weeks, baseline 50
  Patient own assessment (0-100), final: 50, 30
Patient 3, 12 weeks, baseline 90
  Physician assessment (0-100), final: 90, 30
Patient 3, 12 wks
  ACR % Response: 50%
Patient 3, treatment duration 12 weeks
  ACR % Response: 50%
Patient 4, 3½ wks
  ACR % Response: 20%
Patient 4, 9 weeks, baseline 0.88
  Function score (Good <1), final: 0.88, 0.38
Patient 4, 9 weeks, baseline 7
  Morning stiffness, final: 7, 3 hrs
Patient 4, 9 weeks, baseline 24
  Swollen joint count assessed with ultrasound, final: 24, 3
Patient 4, 9 weeks, baseline 28
  Tender joint, final: 28, 11
Patient 4, 9 weeks, baseline 80
  Physician assessment (0-100), final: 80, 40
Patient 4, 9 weeks, baseline 90
  Patient own assessment (0-100), final: 90, 50
Patient 4, 9 wks
  ACR % Response: 50%
Patient 4, treatment duration 9 weeks
  ACR % Response: 50%
Patient 5, 7 weeks, baseline 1.29
  Function score (Good <1), final: 1.29, 0.88
Patient 5, 7 weeks, baseline 2.5
  Morning stiffness, final: 2.5, ¾
Patient 5, 7 weeks, baseline 10
  Swollen joint count assessed with ultrasound, final: 10, 2
Patient 5, 7 weeks, baseline 12
  Tender joint, final: 12, 0
Patient 5, 7 weeks, baseline 70
  Physician assessment (0-100), final: 70, 20
Patient 5, 7 weeks, baseline 88, footnote: muscular pain in arms
  Patient own assessment (0-100), final: 88, 88^3
Patient 5, after treatment, power Doppler present before (FIG. 2)
  Power Doppler (inflammatory activity) on ultrasound of shoulder and MCP 4 joints: no power Doppler
Patient 5, treatment duration 7 weeks
  ACR % Response: 30%
Patient 6, 36 weeks, baseline 1.5
  Function score (Good <1), final: 1.5, 0.625
Patient 6, 36 weeks, baseline 2
  Morning stiffness, final: 2, 0 hrs
Patient 6, 36 weeks, baseline 16
  Swollen joint count assessed with ultrasound, final: 16, 0
Patient 6, 36 weeks, baseline 24
  Tender joint, final: 24, 0
Patient 6, 36 weeks, baseline 60
  Patient own assessment (0-100), final: 60, 7
Patient 6, 36 weeks, baseline 90
  Physician assessment (0-100), final: 90, 7
Patient 6, by 3.5 weeks of degarelix, large effusion before (FIG. 4)
  Effusion over the right wrist on ultrasound: much smaller
Patient 6, treatment duration 36 weeks
  ACR % Response: 80%
